Source: PubChem BioAssay (NCI)
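Each compound was tested at five concentrations against cells in 96-well plates for 48 hours. TGI is the concentration that stops growth completely.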

Key:
Assay in all cases: NCI anticancer screen, dose series, 48 h
[1] = system: 786-0 renal
[2] = system: A498 renal
[3] = system: BT-549 breast
[4] = system: DU-145 prostate
[5] = system: EKVX NSCLC
[6] = system: HCC-2998 colon
[7] = system: HCT-116 colon
[8] = system: KM12 colon
[9] = system: MDA-N
[10] = system: NCI-H226 lung
[11] = system: OVCAR-3 ovarian
[12] = system: OVCAR-8 ovarian
[13] = system: SN12C renal
[14] = system: UACC-257 melanoma
[15] = system: HOP-92 NSCLC
[16] = system: HS 578T breast
[17] = system: NCI-H460 lung

Row | Structure (SMILES) | TGI [1] | TGI [2] | TGI [3] | TGI [4] | TGI [5] | TGI [6] | TGI [7] | TGI [8] | TGI [9] | TGI [10] | TGI [11] | TGI [12] | TGI [13] | TGI [14] | TGI [15] | TGI [16] | TGI [17]
1 | O=C(NNC(=S)NCc1ccccc1)c1csc(NC(=S)NC2CCCCC2)n1 | > 100 µM | > 100 µM | > 100 µM | > 100 µM | > 100 µM | > 100 µM | 72.3 µM | > 100 µM | 73.2 µM | 64.7 µM | > 100 µM | > 100 µM | 95.7 µM | 43 µM |  |  | 
2 | CCN(CCCl)c1cc(CN(C)C)cc(NC(=O)C23CCC(C(=O)Nc4cc(CN(C)C)cc(N(CC)CCCl)c4)(CC2)CC3)c1 | 1 µM | 20.2 µM |  | 11.9 µM |  | 2.73 µM | 5.33 µM | 3.17 µM | 2.38 µM | 4 µM |  | 3.16 µM | 2.39 µM | 15.5 µM | 5.06 µM | 2.53 µM | 2.17 µM
3 | CC(C)Oc1cccc(N2C(=NCCc3c[nH]c4ccccc34)Nc3ccncc3S2(=O)=O)c1 | 5.35 µM | > 100 µM | > 100 µM | > 100 µM | > 100 µM | > 100 µM | > 100 µM | > 100 µM |  | > 100 µM | > 100 µM | > 100 µM | > 100 µM | > 100 µM | > 100 µM | > 100 µM | > 100 µM
4 | O=C(O)[C@H](Cc1ccccc1)NCCN1CCC[C@H]1C(=O)O | > 100 µM | > 100 µM |  | > 100 µM |  |  | > 100 µM | > 100 µM | > 100 µM |  | > 100 µM | > 100 µM | > 100 µM |  | 72.3 µM |  | > 100 µM
5 | COC1(OC)C=CC2C1C1C=CC2C1(OC)OC (centres undefined) | > 100 µM | > 100 µM |  | > 100 µM | > 100 µM | > 100 µM | > 100 µM | > 100 µM |  | > 100 µM | > 100 µM | > 100 µM | > 100 µM | > 100 µM | > 100 µM | > 100 µM | > 100 µM
6 | CC1=NN(c2nc(N)nc(C/C(N)=N/O)n2)C(C)(C)C1 | > 100 µM | > 100 µM | > 100 µM | > 100 µM | > 100 µM | > 100 µM | > 100 µM | > 100 µM |  | > 100 µM | > 100 µM | > 100 µM | > 100 µM | > 100 µM | > 100 µM | > 100 µM | > 100 µM
7 | CN(C)c1nncc2n[nH]nc12 | > 100 µM | > 100 µM | > 100 µM |  | > 100 µM | > 100 µM | > 100 µM | > 100 µM | > 100 µM | > 100 µM | > 100 µM | > 100 µM | > 100 µM | > 100 µM | > 100 µM |  | 
8 | CC(=O)OC[C@@]12Cc3ccc(C)c(O)c3[C@]1(C)[C@@H](OC(C)=O)[C@]1(O)[C@H]([C@@H](OC(=O)c3ccccc3)[C@@H](C)[C@H]1OC(C)=O)[C@H]2OC(C)=O | > 50 µM | > 50 µM | > 50 µM | > 50 µM | > 50 µM | > 50 µM | > 50 µM | > 50 µM |  | > 50 µM | > 50 µM | > 50 µM | > 50 µM | > 50 µM | > 50 µM | > 50 µM | > 50 µM
9 | C=CCN1/C(=C2\SC(=S)N(c3ccc(C)cc3)C2=O)Sc2c1nc[nH]c2=O | > 100 µM | > 100 µM |  |  | > 100 µM |  | > 100 µM |  |  | > 100 µM | > 100 µM | > 100 µM | > 100 µM | > 100 µM | > 100 µM |  | > 100 µM
10 | COc1cc2c(cc1OC)CC1c3cc(OC)c(OC)cc3CCN1CC2 (centres undefined) | > 100 µM | > 100 µM | > 100 µM | > 100 µM | > 100 µM | > 100 µM | > 100 µM | > 100 µM |  | > 100 µM | > 100 µM | > 100 µM | > 100 µM | > 100 µM | > 100 µM | > 100 µM | > 100 µM
11 | COc1ccc(NC(=O)C(C)Oc2ccc(OCC3CCCCC3)cc2)cc1 (centres undefined) | > 100 µM | > 100 µM |  |  |  | > 100 µM | > 100 µM | > 100 µM |  | > 100 µM | > 100 µM | > 100 µM | > 100 µM | > 100 µM |  |  | > 100 µM
12 | Clc1ccc(C[P+]2(c3ccccc3)CCCCC2)cc1 | > 100 µM | > 100 µM |  |  | > 100 µM | > 100 µM | > 100 µM | > 100 µM |  | > 100 µM | > 100 µM | > 100 µM | > 100 µM | 89.5 µM |  |  | > 100 µM
13 | O/N=C1/CC2(N3CCOCC3)C3CC/C(=N\O)C2CC1(Cc1ccccc1)C3 (centres undefined) | > 100 µM | > 100 µM |  | > 100 µM | > 100 µM | > 100 µM | > 100 µM | > 100 µM | > 100 µM | > 100 µM | > 100 µM | > 100 µM | > 100 µM | > 100 µM |  |  | > 100 µM
14 | CCOC(OCC)N1C(=O)C2(C(OCC)OCC)CC3C(OC(=O)N3N)c3cccc1c32 (centres undefined) | > 100 µM | > 100 µM | > 100 µM | > 100 µM | > 100 µM | > 100 µM | > 100 µM | > 100 µM | > 100 µM | > 100 µM | > 100 µM | > 100 µM | > 100 µM | > 100 µM |  |  | > 100 µM
15 | N=CN=CC(=S)O[C@@H]1C(=O)N2CCC[C@@]23CCCC[C@@H]13 | > 12.5 µM | > 12.5 µM |  | > 12.5 µM | > 12.5 µM | > 12.5 µM | > 12.5 µM | > 12.5 µM | > 12.5 µM | > 12.5 µM |  | > 12.5 µM | > 12.5 µM | > 12.5 µM |  | > 12.5 µM | > 12.5 µM
16 | CN(C(=O)C1=CCC2(CC1)OCCO2)c1ccccc1I | > 100 µM | > 100 µM |  | > 100 µM | > 100 µM | > 100 µM | > 100 µM | > 100 µM | > 100 µM | > 100 µM | > 100 µM | > 100 µM | > 100 µM | > 100 µM | > 100 µM |  | > 100 µM
